From patent US8367666B2 (priority 2004, dated 2013)
Like-named read-outs stand apart in the source and are kept apart here.

Columns and labels:
[1] = system: scratching action induced by Compound 48/80; test: Anti-pruritic activity test by application (Compound 48/80 scratching); assay type: in vivo, mouse (Crj:CD-1 (ICR)); conditions: Mus musculus, topical, read-out: Itching inhibition ratio % (Concentration %)
Method: 1) Preparation of the compound and the reagent: The compound being tested was dissolved in acetone (SIGMA). Compound 48/80 (SIGMA) was dissolved in physiological saline (m by Otsuka Pharmaceutical Co., Ltd.) so as to be 60 μg/mL.
2) Animals: Female Crj: CD-1 (ICR) mice of 6 to 10 age in week (Japan Charles Liver) were used as laboratory animals. The animals were fed in the barrier breeding room where […] in room temperature, 30 to 70% in humidity, and the light and shade condition existed every 12 hours and feed (CE-2: Japan Crea) and the drinking water were freely taken. The hair of dorsa (from the cervical region of the back to the center of the back) of the animals were cut with a hair clipper two days or more before the anti-pruritic activity is evaluated, those with no wound, rubefaction, and thickening of the skin on the dehaired part were chosen and supplied to the experiment on the day of the evaluation. 3) Evaluation procedures: The acetone solution of the compound being tested was applied by 50 μL on the dehaired parts of the mice with a pipeter. On the mice of the control group, 50 μL of acetone was applied. The 15 minutes later, 50 μL (corresponding to 3 μg) of Compound 48/80 solution was injected intradermally in the compound applied parts with the use of a injector (Terumo Corporation), the mice were individually put in five observation cages made of acrylate resin at once, and the scratching action (action of scratching the injection part by the hind leg) frequency during 30 minutes was measured. The evaluation was carried out in one group of 5 to 7 mice. 4) Data processing: The experiment results were shown by the mean values. The test of the significant difference of the compound applying group to the control group was conducted with Welch's t-test, and p<0.05 was assumed to be significant.

[2] = biological target: T1, CB1 receptor (Homo sapiens, UniProt P21554); test: Human cannabinoid receptor bonding inhibition test ([3H]CP55940), CB1; assay type: binding; design: expressed in transfected cells; membrane fraction
T1 sequence (P21554 whole entry): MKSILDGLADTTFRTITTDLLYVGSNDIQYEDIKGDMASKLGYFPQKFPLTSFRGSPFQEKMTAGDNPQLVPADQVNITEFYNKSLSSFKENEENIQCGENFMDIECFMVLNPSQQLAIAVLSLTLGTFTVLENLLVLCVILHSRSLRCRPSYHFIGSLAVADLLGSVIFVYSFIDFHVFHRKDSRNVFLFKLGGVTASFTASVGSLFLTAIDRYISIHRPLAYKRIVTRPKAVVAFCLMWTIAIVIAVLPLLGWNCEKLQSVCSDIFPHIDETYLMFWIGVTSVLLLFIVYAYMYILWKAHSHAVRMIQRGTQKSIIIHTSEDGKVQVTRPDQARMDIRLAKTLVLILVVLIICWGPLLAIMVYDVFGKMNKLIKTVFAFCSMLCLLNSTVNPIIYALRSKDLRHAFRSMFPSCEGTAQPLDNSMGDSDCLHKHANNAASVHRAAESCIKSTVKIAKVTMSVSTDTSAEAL

[3] = biological target: T2, CB2 receptor (Homo sapiens, UniProt P34972); test: Human cannabinoid receptor bonding inhibition test ([3H]CP55940), CB2; assay type: binding; design: expressed in transfected cells; membrane fraction
T2 sequence (P34972 whole entry): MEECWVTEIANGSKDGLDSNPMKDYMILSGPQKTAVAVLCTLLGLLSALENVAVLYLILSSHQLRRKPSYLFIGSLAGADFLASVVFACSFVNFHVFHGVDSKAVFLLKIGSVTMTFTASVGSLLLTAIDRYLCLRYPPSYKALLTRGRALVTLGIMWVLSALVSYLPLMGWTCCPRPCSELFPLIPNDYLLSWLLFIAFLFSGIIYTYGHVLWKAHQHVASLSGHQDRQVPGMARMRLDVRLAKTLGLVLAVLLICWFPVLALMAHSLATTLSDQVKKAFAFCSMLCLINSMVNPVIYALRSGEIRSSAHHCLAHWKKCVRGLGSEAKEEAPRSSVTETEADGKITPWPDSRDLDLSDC

[4] = biological target: T1, CB1 receptor; test: cAMP formation inhibition experiment through a cannabinoid receptor (forskolin stimulation), CB1; assay type: cell-based; design: expressed in transfected cells; host or cells: CHO cells
Method: A compound being tested was added in the CHO cell which had mad human CB1 or CB2 receptor reveal and incubated for 15 minutes, and then forskolin (the final concentration 4 μM, and manufactured by SIGMA Corp.) was added and the mixture was incubated for 20 minutes. After the reaction had been stopped by adding 1M hydrochloric acid, the amount of cAMP in the supernatant was measured with the use of Cyclic AMP kit (made by the CIS Diagnostic Corp.).

[5] = biological target: T2, CB2 receptor; test: cAMP formation inhibition experiment through a cannabinoid receptor (forskolin stimulation), CB2; assay type: cell-based; design: expressed in transfected cells; host or cells: CHO cells
[6] = read-out: Agonist activity (nM) CB1
[7] = [3H]CP55940 0.5 nM, membrane preparation of CHO cells expressing CB1, Ki calculated from IC50, read-out: Binding activity (nM) CB1

With `CC(C)OC(=O)C(C)(C)NC(=O)c1cc2c(n(CC3CCCCC3)c1=O)CCCCCC2` [Compound I-301] the inhibition in vivo at 0.5 % [1] was 39%, the Ki [2] was < 2 nM and the Ki [3] was < 2 nM. For the same compound, the IC50 [4, 6] was < 2 nM.

With `CCc1c(C)cc(C(=O)Nc2nc(CC(=O)O)cs2)c(=O)n1Cc1ccc(F)c(F)c1` [XI-025] the Ki ([2]; read-out: Binding activity (nM) CB1) was 1360 nM, the Ki [3] was 54 nM and the IC50 [4] was > 2000 nM. It also gave an IC50 ([5]; read-out: Agonist activity (nM) CB2) of 209 nM.

`CCCCn1c2c(cc(C(=O)NC3(CC(=O)O)CCCC3)c1=O)CCCCCC2` [Compound X-235] was tested, and the Ki [2] was 950 nM, the Ki [3] was 3.7 nM and the IC50 [4, 6] was 270 nM. For the same compound, the IC50 [5] was 4.7 nM.

For `O=C(O)C1=C(NC(=O)c2cc3c(n(CC4CCCCC4)c2=O)CCCCCC3)CCCC1` [Compound X-126], the Ki [2] was 873 nM, the Ki [3] was 31 nM and the IC50 [4, 6] was 131 nM. The IC50 [5] was 35 nM.

With `CCCCn1c(CCC)c(CC)cc(C(=O)NC2(CC(=O)O)CCCC2)c1=O` [Compound X-233] the Ki [2, 7] was > 2000 nM, the Ki [3] was 24 nM and the IC50 [4] was > 2000 nM. It also gave an IC50 [5] of 15 nM.

With `CCCc1c(CC)cc(C(=O)N[C@H](C(=O)OC)C(C)C)c(=O)n1CC1CCCCC1` [Compound I-133] the inhibition in vivo at 0.5 % [1] was 56%, the Ki [2] was 5 nM and the Ki [3] was < 2 nM. The IC50 [4, 6] was 4 nM.

`CCc1c(C)cc(C(=O)NC2(C(=O)O)CCCCC2)c(=O)n1Cc1ccc(F)cc1` [Compound I-493] was tested, and the Ki [2] was > 2000 nM, the Ki ([3]; [3H]CP55940 0.5 nM, membrane preparation of CHO cells expressing CB2, Ki calculated from IC50, read-out: Binding activity (nM) CB2) was 36 nM and the IC50 ([5]; inhibition of forskolin (4 μM)-stimulated cAMP formation, CHO cells expressing human CB2, read-out: Agonist activity (nM) CB2) was 24 nM.

For `CCc1c(C)cc(C(=O)NCC2(CC(=O)O)CCCCC2)c(=O)n1Cc1ccc(F)cc1` [Compound X-197], the Ki [2] was 1260 nM, the Ki [3] was 41 nM and the IC50 [4, 6] was 708 nM. It also gave an IC50 [5] of 7.2 nM.

`CSC(=O)C(C)(C)NC(=O)c1cc2c(n(CC3CCCCC3)c1=O)CCCCCC2` [Compound I-001, 2-[(1-cyclohexylmethyl-2-oxo-1,2,5,6,7,8,9,10-octahydro-cycloocta[b]pyridine-3-carbonyl)-amino]-2-methyl-thiopropionic acid S-methyl ester] was tested, and the inhibition in vivo at 0.5 % [1] was 53%, the Ki [2] was < 2 nM and the Ki [3] was < 2 nM. The IC50 [4, 6] was < 2 nM.

`CCCCn1c2c(cc(C(=O)NC3(CC(=O)O)CCCCC3)c1=O)CCCCCC2` [Compound X-157] showed a Ki [2, 7] of 270 nM, a Ki [3] of 3.4 nM and an IC50 [4] of 268 nM. The IC50 [5] was < 2 nM.

`CCc1c(C)cc(C(=O)N[C@H](C(=O)OC)C(C)C)c(=O)n1CC1CCCCC1` [Compound I-134] was tested, and the inhibition in vivo at 0.5 % [1] was 91%, the Ki [2] was < 2 nM and the Ki [3] was < 2 nM. For the same compound, the IC50 [4, 6] was < 2 nM.

For `CCc1c(C)cc(C(=O)N[C@H](C(=O)OC)C(C)(C)C)c(=O)n1CC1CCCCC1` [Compound I-252], the inhibition in vivo at 1.5 % [1] was 96%, the Ki [2] was < 2 nM and the Ki [3] was < 2 nM. For the same compound, the IC50 [4, 6] was < 2 nM.

With `CCc1c(C)cc(C(=O)NC2(C(=O)O)CCCCCCCCC2)c(=O)n1Cc1ccc(F)cc1` [Compound X-231] the Ki [2, 7] was > 2000 nM, the Ki [3] was 38 nM and the IC50 [4] was > 2000 nM. The IC50 [5] was 35 nM.

For `CCCCn1c(CCC)c(CC)cc(C(=O)N[C@H](C(=O)OC)C(C)(C)C)c1=O` [Compound I-211], the inhibition in vivo at 1.5 % [1] was 70%, the Ki [2] was 2.4 nM and the Ki [3] was < 2 nM. The IC50 [4, 6] was < 2 nM.

`CCCCn1c2c(cc(C(=O)NC3(C(=O)OC)CCCCC3)c1=O)CCCCCC2` [Compound I-124] was tested, and the inhibition in vivo at 0.5 % [1] was 49%, the Ki [2] was 3.6 nM and the Ki [3] was < 2 nM. For the same compound, the IC50 [4, 6] was < 2 nM.

Compound `CCc1c(C)cc(C(=O)NC2(CC(=O)O)CCCC2)c(=O)n1Cc1ccc(F)cc1` [Compound X-234] has a Ki [2, 7] of 482 nM, a Ki [3] of 4 nM and an IC50 [4] of 375 nM. The IC50 [5] was 6.1 nM.

With `CCCCn1c2c(cc(C(=O)NC(CCC(=O)O)CC(C)C)c1=O)CCCCCC2` (centres unmarked) [Compound X-202] the Ki [2, 7] was 1180 nM, the Ki [3] was 46 nM and the IC50 [4] was > 2000 nM. It also gave an IC50 [5] of 81 nM.

With `CCc1c(C)cc(C(=O)N[C@H](C(=O)OC)C(C)C)c(=O)n1Cc1ccc(F)cc1` [Compound I-196] the inhibition in vivo at 0.5 % [1] was 47%, the Ki [2] was < 2 nM and the Ki [3] was < 2 nM. For the same compound, the IC50 [4, 6] was < 2 nM.
